Reference: ChEMBL document CHEMBL4680139, “Antiproliferative activity of diarylnaphthylpyrrolidine derivative via dual target inhibition” (Eur J Med Chem, 2020)

What was measured:
[1] = test system: MDA-MB-231; assay: Induction of apoptosis in human MDA-MB-231 cells assessed as proportion of viable cells at 2.6 uM measured after 24 hrs by Annexin V-FITC/propidium iodide staining based flow cytometry (reference value: 99%); format: functional
[2] = Toxicity in Swiss albino mouse assessed as body weight at 50 mg/kg, po administered as single dose (reference value: 31.62 +/- 1.64 gms); format: organism-based; conditions: in vivo
[3] = test system: MCF7; assay: Induction of apoptosis in human MCF-7 cells assessed as proportion of necrotic cells at 4.33 uM measured after 24 hrs by Annexin V- FITC/propidium iodide staining based flow cytometry (reference value: 5.3%); format: functional
[4] = Toxicity in Swiss albino mouse assessed as total bilirubin level in serum at 300 mg/kg, po administered as single dose (reference value: 0.62 +/-0.05 mg/dl); format: organism-based; conditions: in vivo
[5] = Toxicity in Swiss albino mouse assessed as creatinine level in serum at 300 mg/kg, po administered as single dose (reference value: 0.27+/-0.02 mg/dl); format: organism-based; conditions: in vivo
[6] = test system: MCF7; assay: Induction of apoptosis in human MCF-7 cells at 8.66 uM by propidium iodide staining based flow cytometry (reference value: 2.1%); format: functional
[7] = Toxicity in Swiss albino mouse assessed as triglyceride level in serum at 300 mg/kg, po administered as single dose (reference value: 78.34 +/-2.99 mg/dl); format: organism-based; conditions: in vivo
[8] = Toxicity in Swiss albino mouse assessed as total bilirubin level in serum at 5 mg/kg, po administered as single dose (reference value: 0.62 +/-0.05 mg/dl); format: organism-based; conditions: in vivo
[9] = test system: MDA-MB-231; assay: Induction of apoptosis in human MDA-MB-231 cells assessed as proportion of viable cells at 5.21 uM measured after 24 hrs by Annexin V-FITC/propidium iodide staining based flow cytometry (reference value: 99%); format: functional
[10] = test system: MCF7; assay: Induction of cell cycle arrest in human MCF-7 cells assessed as accumulation at G2/M phase at 4.33 uM by propidium iodide staining based flow cytometry (reference value: 15.2%); format: functional
[11] = test system: MCF7; assay: Induction of cell cycle arrest in human MCF-7 cells assessed as accumulation at G2/M phase at 2.17 uM by propidium iodide staining based flow cytometry (reference value: 15.2%); format: functional
[12] = test system: MCF7; assay: Induction of apoptosis in human MCF-7 cells assessed as proportion of early apoptotic cells at 8.66 uM measured after 24 hrs by Annexin V- FITC/propidium iodide staining based flow cytometry (reference value: 0%); format: functional
[13] = test system: MCF7; assay: Induction of apoptosis in human MCF-7 cells assessed as proportion of early apoptotic cells at 4.33 uM measured after 24 hrs by Annexin V- FITC/propidium iodide staining based flow cytometry (reference value: 0%); format: functional
[14] = Toxicity in Swiss albino mouse assessed as albumin level in serum at 50 mg/kg, po administered as single dose (reference value: 0.56 +/-0.02 g/dl); format: organism-based; conditions: in vivo
[15] = Toxicity in Swiss albino mouse assessed as ALP level in serum at 50 mg/kg, po administered as single dose (reference value: 195.8 +/-12.06 U/L); format: organism-based; conditions: in vivo
[16] = biological target: DNA topoisomerase 2-alpha (Homo sapiens) (UniProt P11388); assay: Inhibition of DNA-topoisomerase 2 in human MCF7 cells using kinetoplast DNA as substrate measured by ELISA; format: cell-based; conditions: dose 4.33-17.32 µM
[17] = Toxicity in Swiss albino mouse assessed as absolute and relative heart weight at 5 to 300 mg/kg, po administered as single dose; format: organism-based; conditions: in vivo, dose 5-300 mg/kg
[18] = test system: MDA-MB-231; assay: Induction of apoptosis in human MDA-MB-231 cells assessed as proportion of necrotic cells at 5.21 uM measured after 24 hrs by Annexin V-FITC/propidium iodide staining based flow cytometry (reference value: 0.2%); format: functional
[19] = Toxicity in Swiss albino mouse assessed as absolute and relative spleen weight at 5 to 300 mg/kg, po administered as single dose; format: organism-based; conditions: in vivo, dose 5-300 mg/kg
[20] = test system: MDA-MB-231; assay: Induction of apoptosis in human MDA-MB-231 cells assessed as proportion of early apoptotic cells at 10.42 uM measured after 24 hrs by Annexin V-FITC/propidium iodide staining based flow cytometry (reference value: 0.2%); format: functional
[21] = test system: MCF7; assay: Antiproliferative activity against human MCF-7 cells assessed as proportion of dead cells at 50 ug/ml measured after 3 weeks by crystal violet staining based soft agar colony formation assay; format: functional; conditions: dose 50 µg/ml
[22] = test system: MDA-MB-231; assay: Induction of apoptosis in human MDA-MB-231 cells at 5.21 uM by propidium iodide staining based flow cytometry (reference value: 2.6 +/- 0.28%); format: functional
[23] = Toxicity in Swiss albino mouse assessed as RBC level in blood at 50 mg/kg, po administered as single dose (reference value: 10.56 +/- 1.22x10^6/mm3); format: organism-based; conditions: in vivo
[24] = Toxicity in Swiss albino mouse assessed as absolute and relative kidney weight at 5 to 300 mg/kg, po administered as single dose; format: organism-based; conditions: in vivo, dose 5-300 mg/kg
[25] = Toxicity in Swiss albino mouse assessed as cholesterol level in serum at 300 mg/kg, po administered as single dose (reference value: 103.62 +/-7.45 mg/dl); format: organism-based; conditions: in vivo
[26] = test system: MCF7; assay: Induction of apoptosis in human MCF-7 cells assessed as proportion of necrotic cells at 8.66 uM measured after 24 hrs by Annexin V- FITC/propidium iodide staining based flow cytometry (reference value: 5.3%); format: functional
[27] = Toxicity in Swiss albino mouse assessed as serum protein level at 5 mg/kg, po administered as single dose (reference value: 2.83 +/-0.09 mg/ml); format: organism-based; conditions: in vivo
[28] = test system: MDA-MB-231; assay: Induction of cell cycle arrest in human MDA-MB-231 cells assessed as accumulation at G0/G1 phase at 10.42 uM by propidium iodide staining based flow cytometry (reference value: 77.7 +/- 0.28%); format: functional
[29] = test system: MDA-MB-231; assay: Induction of apoptosis in human MDA-MB-231 cells assessed as proportion of early apoptotic cells at 5.21 uM measured after 24 hrs by Annexin V-FITC/propidium iodide staining based flow cytometry (reference value: 0.2%); format: functional
[30] = test system: HCT-116; assay: Antiproliferative activity against human HCT-116 cells assessed as inhibition of cell growth measured after 48 hrs by SRB assay; format: functional, cell-based; conditions: HCT-116, 48 h
[31] = Toxicity in Swiss albino mouse assessed as ALP level in serum at 5 mg/kg, po administered as single dose (reference value: 195.8 +/-12.06 U/L); format: organism-based; conditions: in vivo
[32] = test system: MCF7; assay: Antiproliferative activity against human MCF-7 cells assessed as proportion of live cells at 50 ug/ml measured after 3 weeks by crystal violet staining based soft agar colony formation assay (reference value: 100%); format: functional; conditions: dose 50 µg/ml
[33] = test system: MDA-MB-231; assay: Induction of cell cycle arrest in human MDA-MB-231 cells assessed as accumulation at G2/M phase at 2.6 uM by propidium iodide staining based flow cytometry (reference value: 8.35 +/-0.07%); format: functional
[34] = test system: MDA-MB-231; assay: Induction of cell cycle arrest in human MDA-MB-231 cells assessed as accumulation at G2/M phase at 5.21 uM by propidium iodide staining based flow cytometry (reference value: 8.35 +/- 0.07%); format: functional

Chain of DNA topoisomerase 2-alpha (Homo sapiens) (P11388 whole entry): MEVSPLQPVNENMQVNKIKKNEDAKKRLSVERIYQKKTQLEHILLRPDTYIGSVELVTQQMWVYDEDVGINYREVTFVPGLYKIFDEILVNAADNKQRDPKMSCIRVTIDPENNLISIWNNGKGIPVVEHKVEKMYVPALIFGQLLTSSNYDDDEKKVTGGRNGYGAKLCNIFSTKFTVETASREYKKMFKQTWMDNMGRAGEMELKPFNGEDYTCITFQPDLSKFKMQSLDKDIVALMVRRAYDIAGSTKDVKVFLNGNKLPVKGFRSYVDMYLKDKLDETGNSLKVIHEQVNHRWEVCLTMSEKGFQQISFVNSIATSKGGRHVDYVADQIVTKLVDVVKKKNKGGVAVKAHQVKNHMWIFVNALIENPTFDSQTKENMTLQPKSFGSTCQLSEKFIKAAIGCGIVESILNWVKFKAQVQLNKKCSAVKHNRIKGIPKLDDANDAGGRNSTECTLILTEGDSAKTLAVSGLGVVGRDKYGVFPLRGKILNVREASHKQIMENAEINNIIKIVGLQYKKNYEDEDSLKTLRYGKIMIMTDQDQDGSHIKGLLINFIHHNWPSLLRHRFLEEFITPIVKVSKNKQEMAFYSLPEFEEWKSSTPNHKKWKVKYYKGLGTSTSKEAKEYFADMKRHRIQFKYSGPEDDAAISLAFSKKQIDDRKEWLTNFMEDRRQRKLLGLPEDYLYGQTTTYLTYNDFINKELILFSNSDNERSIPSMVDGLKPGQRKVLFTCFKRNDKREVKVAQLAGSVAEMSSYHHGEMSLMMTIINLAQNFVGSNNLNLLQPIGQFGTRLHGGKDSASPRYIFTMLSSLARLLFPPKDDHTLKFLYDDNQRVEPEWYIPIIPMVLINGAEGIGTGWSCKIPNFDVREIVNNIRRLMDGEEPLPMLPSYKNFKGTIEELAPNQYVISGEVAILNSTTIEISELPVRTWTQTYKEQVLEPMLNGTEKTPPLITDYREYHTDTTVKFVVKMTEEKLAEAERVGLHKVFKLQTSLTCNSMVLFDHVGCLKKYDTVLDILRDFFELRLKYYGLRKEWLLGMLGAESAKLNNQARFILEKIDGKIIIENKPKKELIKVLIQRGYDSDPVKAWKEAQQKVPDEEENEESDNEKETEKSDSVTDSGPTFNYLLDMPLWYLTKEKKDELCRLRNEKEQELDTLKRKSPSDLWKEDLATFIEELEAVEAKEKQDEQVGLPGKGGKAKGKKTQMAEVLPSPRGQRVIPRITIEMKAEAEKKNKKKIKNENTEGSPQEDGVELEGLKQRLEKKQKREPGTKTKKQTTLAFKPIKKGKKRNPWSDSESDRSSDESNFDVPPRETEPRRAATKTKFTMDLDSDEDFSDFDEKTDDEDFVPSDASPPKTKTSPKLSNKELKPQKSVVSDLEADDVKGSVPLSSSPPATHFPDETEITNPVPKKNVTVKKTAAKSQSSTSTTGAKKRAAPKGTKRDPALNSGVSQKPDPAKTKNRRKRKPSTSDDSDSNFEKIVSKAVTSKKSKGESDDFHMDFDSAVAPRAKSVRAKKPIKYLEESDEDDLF

COc1ccc(C(c2ccccc2OCCN2CCCC2)c2cccc3ccccc23)c(OC)c1OC (centres undefined)
Activity [1]: 95.1% | Activity [2]: 30.44 g | Activity [3]: 10.5% | Activity [4]: 1.01 mg/dL | Activity [5]: 0.2 mg/dL | Activity [6]: 11.4% | Activity [7]: 106.09 mg/dL | Activity [8]: 0.66 mg/dL | Activity [9]: 91.4% | Activity [10]: 13.4% | Activity [11]: 12.1% | Activity [12]: 0% | Activity [13]: 0% | Activity [14]: 0.57 g/dL | Activity [15]: 182.4 U/L | inhibition [16]: Dose-dependent effect | Activity [17]: Non-Toxic | Activity [18]: 1.7% | Activity [19]: Non-Toxic | Activity [20]: 1.7% | Activity [21]: 87.02% | Activity [22]: 2.8% | Activity [23]: 9.84 million/mm3 | Activity [24]: Non-Toxic | Activity [25]: 120.54 mg/dL | Activity [26]: 12.1% | Activity [27]: 2.27 mg/mL | Activity [28]: 56.9% | Activity [29]: 0.4% | IC50 [30]: 2.03 µM | Activity [31]: 198.57 U/L | Activity [32]: 12.98% | Activity [33]: 10.35% | Activity [34]: 10.2%
